Reference: patent EP2961847B1, “NITRITE-REDUCTASE (NIRB) AS POTENTIAL ANTI-TUBERCULAR TARGET AND A METHOD TO DETECT THE SEVERITY OF TUBERCULOSIS DISEASE” (priority 2013, dated 2014)
Read-outs that look alike come from different tables or passages of the source.

How the values were obtained:
[1] = system: M. tuberculosis in THP-1 macrophage; format: cell-based, Mycobacterium tuberculosis
[2] = system: THP-1 macrophages; experiment: Cytotoxic effect on THP-1 macrophages, fluorescence microscopy after DAPI staining; format: cell-based, Human; details: 100 µM; images after 10th day of inhibitor treatment; compared with untreated control
Procedure: THP-1 macrophage cells were grown on cover slip in 8 well microplates and washed twice with chilled methanol followed by staining with 4', 6-diamidino-2-phenylindole (DAPI) at final concentration of 300 nM. Macrophage cells were kept for 15 min at room temperature under dark condition. After incubation, cells were washed three times with distilled water and analyzed under the fluorescence microscope (Leitz Wetzlar model, Germany) at 350 nm excitation and 450 nm emission wavelengths (400 X) using 'A'filter.
To investigate the host THP-1 macrophage cells condition due to its exposure to p-HMB inhibitor before considering its effective and specific inhibition of bacilli in macrophage infection models, fluorescence microscopic picture of THP-1 cells treated with p-HMB (100 µM) was compared with the untreated control after staining with DAPI(4',6-diamidino-2-phenylindole). Fluorescence images were taken after 10th day of inhibitor treatment.

[3] = system: Mycobacterium tuberculosis

SMILES | decrease in intracellular viable cell count (log difference compared to control) [1] [log] | cytotoxic effect on macrophage (integrity of nuclear structure) [2] | decrease in intracellular viable cell count (log difference compared to control) ([1]; […], cell counts on 10th day PI, control without inhibitor) [log] | reduction of bacilli count ([1]; summary statement: in-vitro and ex-vivo conditions) [log cfu] | cell count reduced (log difference) [3] [log] | inhibition of bacilli grown under ammonia [3]
[N-]=[N+]=[N-] [Azide] | ~1.5 |  |  |  |  | 
CS(=N)(=O)CC[C@H](N)C(=O)O (stereo partly drawn) [L-MSO, L-methionine sulfoximine] | ~2.5 |  |  |  |  | 
O=C(O)c1cc[c]([Hg][OH])cc1 [p-HMB, para-hydroxy mercuric benzoate] |  | without exhibiting any cytotoxic effects on macrophage | ~2 | ~2 | ~2.5 | no inhibition was observed
